Patent US6777414B1, “Nitrogen-containing heterocyclic compounds and benamide compounds and drugs containing the same” (Meiji Seika Kaisha, Ltd., priority 1999, dated 2004)

What was measured:
Hep G2 cells [1] = assay: Apolipoprotein B secretion inhibitory activity (sandwich ELISA of culture supernatant); format: cell-based; details: Homo sapiens, HepG2, test compound 1 μM
Method: Test 2: Apolipoprotein B Secretion Inhibitory Activity
The apolipoprotein B secretion inhibitory activity of compounds according to the present invention was examined using human hepatoma-derived cell line, Hep G2.
The test was carried out by partially modifying the method of Nagata et al. (Biochem. Pharmacol., 40, 843 (1990)) and the method of Furukawa et al. (J. Biol. Chem., 267, 22630 (1992)). Specifically, Hep G2 cells were cultivated in a Dulbecco modified Eagles's medium (DMEM) containing 10% fetal calf serum (FCS), 100 units/ml penicillin, and 100 μg/ml streptomycin on a 96-well plate. Thereafter, the medium was replaced by DMEM containing 1% bovine serum albumin. At the same time, the test compound was added to a final concentration of 1 μM, followed by cultivation, or cultivation was carried out without the addition of the test compound. Three hours after the replacement of the medium, acetic acid was added to a final concentration of 1 mM, and cultivation was continued for additional 4 hours. The amount of apolipoprotein B secreted in the supernatant of the culture thus obtained was determined by the sandwich ELISA method. Goat anti-human apolipoprotein B polyclonal antibody (CHEMICON) was used as the primary antibody, and mouse anti-human apolipoprotein B monoclonal antibody peroxydase conjugate (BIOSYS) was used as the secondary antibody.
The inhibition (%) of secretion of apolipoprotein B was calculated by the following equation.
Inhibition (%) of secretion of apolipoprotein B={1−(amount of apolipoprotein B secreted in the presence of test compound)/(amount of apolipoprotein B secreted in the absence of test compound)}×100

Hep G2 cells [2] = assay: Triglyceride biosynthesis inhibitory activity (14C-acetic acid incorporation into triglyceride); format: cell-based; details: Homo sapiens, HepG2, test compound 1 μM
Method: Test 1: Triglyceride Biosynthesis Inhibitory Activity
The triglyceride biosynthesis inhibitory activity of compounds according to the present invention was examined using human hepatoma-derived cell line, Hep G2.
The test was carried out by partially modifying the method of Nagata et al. (Biochem. Pharmacol., 40, 843 (1990)) and the method of Furukawa et al. (J. Biol. Chem., 267, 22630 (1992)). Specifically, Hep G2 cells were cultivated in a Dulbecco modified Eagles's medium (DMEM) containing 10% fetal calf serum (FCS), 100 units/ml penicillin, and 100 μg/ml streptomycin on a 96-well plate. Thereafter, the medium was replaced by DMEM containing 1% bovine serum albumin. At the same time, the test compound was added to a final concentration of 1 μM, followed by cultivation, or cultivation was carried out without the addition of the test compound. Three hours after the replacement of the medium, ^14C-acetic acid was added to a final concentration of 1 mM, and cultivation was continued for additional 4 hours. After the cells were washed with a phosphate buffer (pH 7.5) containing 150 mM sodium chloride, lipids within the cells were extracted with n-butanol. After the extraction, the extract was evaporated to dryness under a nitrogen stream. The solid obtained by the evaporation to dryness was dissolved in a minor amount of chloroform. The solution was developed by thin layer chromatography (development solvent: petroleum ether/diethyl ether/acetic acid=90/15/3) to separate a ^14C-triglyceride fraction, and the amount of ^14C-triglyceride produced was then determined with a liquid scintillation counter (Beckman, LS-6500).
The inhibition (%) of biosynthesis of triglyceride was calculated by the following equation.
Inhibition of biosynthesis of triglyceride (%)={1−(amount of ^14C-triglyceride produced in the presence of test compound)/(amount of ^14C-triglyceride produced in the absence of test compound)}×100

ddY mice (male) = assay: Acute toxicity test in mice; format: in vivo; details: orally administered 200 mg/kg, observed for 8 days
Method: (§1) Test 3: Acute Toxicity Test
(§2) For the compound prepared in Example 104, an acute toxicity test was carried out using mice and rats according to a conventional method.

wistar rats (male) = assay: Acute toxicity test in rats; format: in vivo; details: orally administered 200 mg/kg, observed for 8 days
Method: as §1, §2

Q: With `O=C1c2cc(N3CCN(CCC(c4ccccc4)c4ccccc4)CC3)ncc2CCN1Cc1ccccc1` [Example 104, 2-Benzyl-7-[4-(3,3-diphenyl-1-propyl)piperazin-1-yl]-3,4-dihydro-2H-2,6-naphthyridin-1-one] as the compound, how does the inhibition at 1 µM (Hep G2 cells [1]) read?
A: 84%

Q: And the inhibition at 1 µM (Hep G2 cells [2])?
A: 83%

Q: What about the “Change in general conditions, such as weight, in acute toxicity test” value (ddY mice (male)) of the same compound?
A: any change in general conditions, such as a change in weight, did not occur

Q: And the “Survival in acute toxicity test” value (ddY mice (male))?
A: all the animals survived

Q: What about the “Change in general conditions, such as weight, in acute toxicity test” value (wistar rats (male)) of the same compound?
A: any change in general conditions, such as a change in weight, did not occur

Q: And the “Survival in acute toxicity test” value (wistar rats (male))?
A: all the animals survived

Q: Which inhibition at 1 µM (Hep G2 cells [1]) does the source give for `CC(C)N(C(=O)c1cccc(N2CCN(CCC(c3ccccc3)c3ccccc3)CC2)c1)C(C)C` [Example 5, N,N-Diisopropyl-3-[4-(3,3-diphenyl-1-propyl)piperazin-1-yl]benzamide] here?
A: 92%

Q: And the inhibition at 1 µM (Hep G2 cells [2])?
A: 8%

Q: With `C=CCN(CC(F)(F)F)C(=O)C1(CCCCN2CCN(c3ccc4c(c3)C(=O)N(Cc3ccccc3)CC4)CC2)c2ccccc2-c2ccccc21` [Example 102, 7-[4-[4-[9-[Allyl-(2,2,2-trifluoroethyl)carbamoyl]-9H-fluoren-9-yl]butyl]piperazin-1-yl]-2-benzyl-3,4-dihydro-2H-isoquinolin-1-one] as the compound, how does the inhibition at 1 µM (Hep G2 cells [1]) read?
A: 80%

Q: What about the inhibition at 1 µM (Hep G2 cells [2]) of the same compound?
A: 89%

Q: Which inhibition at 1 µM (Hep G2 cells [1]) does the source give for `O=C1c2cc(N3CCN(CCCCC4(C(=O)NCC(F)(F)F)c5ccccc5-c5ccccc54)CC3)ccc2CCN1CC1CCCCO1` (centres unmarked) [Example 99, 2-(Tetrahydropyran-2-yl)methyl-7-[4-[4-[9-(2,2,2-trifluoroethylcarbamoyl)-9H-fluoren-9-yl]butyl]piperazin-1-yl]-3,4-dihydro-2H-isoquinolin-1-one] here?
A: ≥ 80%

Q: And the inhibition at 1 µM (Hep G2 cells [2])?
A: 11%

Q: Which results are given for `O=c1c2cc(N3CCN(CCC(c4ccccc4)c4ccccc4)CC3)ccc2cnn1Cc1ccccc1` [Example 149, 2-Benzyl-7-[4-(3,3-diphenylpropyl)piperazin-1-yl]-2H-phthalazin-1-one]?
A: inhibition at 1 µM (Hep G2 cells [1]): 70%; inhibition at 1 µM (Hep G2 cells [2]): 74%
